Experiments:
[1] = Coatest heparin in vitro assay; cited from earlier work
proteases = details: physiological conditions; cited from earlier work
[2] = Isothermal Titration Calorimetry (ITC) of peptoid-heparin binding; details: for TΔS: calculated from binding constant and ΔH; for ΔS: calculated from ΔG and ΔH; for ΔG: calculated from ΔG=−RTlnKb
Protocol: For Table 3, binding constants and other thermodynamic parameters were determined for the chiral 12-mer analogs by ITC. The S12mer data represents 3 trials, and the R12mer represents 2 trials. Values for the parameters Kb, AH and N are obtained by fitting the titration curves. AG is calculated from ΔG=−RTlnKb and ΔS is calculated from […].
Isothermal Titration Calorimetry (“ITC”) was used to determine directly ΔH, the binding constant and stoichiometry, and ΔS was then calculated from the binding constant and ΔH for the binding reaction between heparin and the peptoids produced in this study. In a typical ITC experiment, peptoid in buffer solution was placed in the sample cell and an equivalent quantity of the same buffer solution was placed in the reference cell. Heparin in buffer solution was placed in the titration syringe. Heparin titrant was added to the sample cell in 10 μL aliquots with 210 sec. between aliquots.
FIG. 11 presents the isotherm for the endothermic reaction. The resulting integrated titration curve is given in FIG. 12 for a reaction between 0.20 mM peptoid in the sample cell and 0.25 mM heparin in the titration syringe.

[3] = Heparin Affinity Chromatography (HAC); type: binding; details: Table 4; heparin affinity column, gradient 0 to 1 M NaCl in pH 7.2, 50 mM sodium phosphate over 60 min, 0.65 mL/min
Protocol: The relative affinities of the peptoids in Table 2 for heparin were determined by heparin affinity chromatography (“HAC”). Peptoid solutions, typically 0.2 mM, were eluted by gradient elution; mobile phase A consisted of pH 7.2, 50 mM sodium phosphate buffer and mobile phase B consisted of the same buffer but with 1 M NaCl added. The flow rate was 0.65 mL/min and the gradient began with 100% mobile phase A and 0% mobile phase B, and ended at 60 min with 0% mobile phase A and 100% B although most of the peptoid runs were complete within 30 min or less.

[4] = Table 4, ITC, heparin titrated into peptoid in buffer
[5] = Table 3, ITC, S12mer 3 trials, R12mer 2 trials

Substance	ΔH ([2]; Table 4, ITC)	Kd [2, 4]	TΔS ([2]; Table 4, ITC)	HAC r.t. [3]	further results
Ac-SRGKAKVKAKVKDQTK-NH2 (not fully specified; printed as Ac-SRGKAKVKAKVKDQTK-NH2) [L-HIPAP]	–	–	–	–	neutralizing heparin activity [1]: equally effective
Ac-SRGKAKVKAKVKDQTK-NH2 [D-HIPAP]	–	–	–	–	stability to proteases (proteases): more stable than L-HIPAP
Ac-SRGKAKVKAKVKDQTK-NH2 [L-HIPAP]	–	–	–	–	stability to proteases (proteases): more susceptible to degradation by proteases
H-[N(Arg)-N(Bu)-N(Spe)]2-NH2 [s6merG]	-2.862 ± 0.222 kcal/mol	20.6 ± 0.8 µM	2316 ± 32 cal/mol	13.5 ± 2.9 min	–
H-[N(Arg)-N(Bu)-N(Spe)]3-NH2 [s9merG]	-1.197 ± 0.071 kcal/mol	4.76 ± 2.3 µM	16.6 ± 1.7 cal/mol	20.8 ± 0.8 min	–
H-[N(Arg)-N(Bu)-N(Spe)]-NH2 [s3merG]	-0.6325 ± 0.0085 kcal/mol	140 ± 11 µM	2026.4 ± 159 cal/mol	3.8 ± 0.3 min	–
H-[N(Arg)-N(Et)-N(Spe)]3-NH2 [s9merEtG]	-2.176 ± 0.082 kcal/mol	4.3 ± 2.2 µM	3159 ± 115 cal/mol	21.5 ± 0.5 min	–
H-[N(Arg)-N(Pr)-N(Spe)]3-NH2 [s9merPrG]	-1.634 ± 0.043 kcal/mol	5.6 ± 1.8 µM	4639 ± 36 cal/mol	20.3 ± 0.6 min	–
H-[N(Cad)-N(Bu)-N(Spe)]3-NH2 [s9merCad]	2.381 ± 0.029 kcal/mol	11.7 ± 0.1 µM	8989 ± 15 cal/mol	16.3 ± 0.6 min	–
H-[N(Cad)G-N(Bu)-N(Spe)]3-NH2 [s9merCadG]	-0.2835 ± 0.027 kcal/mol	5.5 ± 3.4 µM	7500 ± 32 cal/mol	20.1 ± 0.5 min	–
H-[N(Lys)-N(Bu)-N(Spe)]3-NH2 [s9merLys]	3.305 ± 0.064 kcal/mol	16.4 ± 11 µM	10,000 ± 54 cal/mole	14.6 ± 0.2 min	–
H-[N(Lys)G-N(Bu)-N(Spe)]3-N2 [s9merLysG]	-0.6151 ± 0.135 kcal/mol	5 ± 0.3 µM	3948 ± 56 cal/mol	20.6 ± 0.2 min	–
H-[N(Orn)-N(All)-N(Spe)]3-NH2 [s9merAll]	-0.931 ± 0.074 kcal/mol	8.3 ± 3.2 µM	4627 ± 41 cal/mol	20 ± 2.0 min	–
H-[N(Orn)-N(Bu)-N(Rpe)]4-NH2 [r12mer]	1.278 ± 0.379 kcal/mol	7.6 ± 4.2 µM	5664 ± 2.5 cal/mol	18.5 ± 0.6 min	Kd [2, 5]: 7.57 µM; ΔH [2, 5]: 1.278 kcal/mol; ΔS ([2]; Table 3, ITC): 19.01 cal/mole ° C.; ΔG ([2]; Table 3, ITC): -6.956 kcal/mol
H-[N(Orn)-N(Bu)-N(Spe)]2-NH2 [s6mer]	0.565 ± 0.064 kcal/mol	44 ± 5 µM	7748 ± 880 cal/mol	9.61 ± 1.1 min	–
H-[N(Orn)-N(Bu)-N(Spe)]3-NH2 [s9mer]	0.814 ± 0.089 kcal/mol	18.6 ± 3.2 µM	7259 ± 45 cal/mol	14.1 ± 1.2 min	–
H-[N(Orn)-N(Bu)-N(Spe)]4-NH2 [s12merG]	-0.167 ± 0.038 kcal/mol	3.4 ± 0.4 µM	7682 ± 43 cal/mol	29.2 ± 1.0 min	–
H-[N(Orn)-N(Bu)-N(Spe)]4-NH2 [s12mer]	1.733 ± 0.047 kcal/mol	4.11 ± 0.6 µM	9097 ± 30 cal/mol	21.6 ± 0.6 min	relative binding affinity to heparin ([2]; ITC and HAC results, comparison in words): greater binding affinity; Kd [2, 5]: 4.11 µM; ΔH [2, 5]: 1.733 kcal/mol; ΔS ([2]; Table 3, ITC): 30.53 cal/mole ° C.; ΔG ([2]; Table 3, ITC): -6.309 kcal/mol
H-[N(Orn)-N(Bu)-N(Spe)]-NH2 [s3mer]	0.3867 ± 0.237 kcal/mol	164 ± 32 µM	5057 ± 35 cal/mol	3.0 ± 0.6 min	–
H-[N(Orn)-N(Bz)-N(Spe)]3-NH2 [s9merBz]	-0.545 ± 0.121 kcal/mol	0.9 ± 0.4 µM	2851 ± 1.4 cal/mol	29.3 ± 0.5 min	–
H-[N(Orn)-N(Et)-N(Spe)]3-NH2 [s9merEt]	0.8223 ± 0.034 kcal/mol	10.9 ± 0.7 µM	5140 ± 37 cal/mol	16.5 ± 0.5 min	–
H-[N(Orn)-N(Me)-N(Spe)]3-NH2 [s9merMe]	1.654 ± 0.011 kcal/mol	8.3 ± 2 µM	3161 ± 76 cal/mol	18.1 ± 0.5 min	–
H-[N(Orn)-N(Orn)-N(Spe)]4-NH2 [s9merOrnOrn]	-5.253 ± 0.105 kcal/mol	0.14 ± 0.004 µM	3992 ± 383 cal/mol	38.5 ± 5.0 min	enthalpy of reaction (sign) ([2]; ITC with heparin): exothermic
H-[N(Orn)-N(Pr)-N(Spe)]3-NH2 [s9merPr]	3.555 ± 0.056 kcal/mol	11.2 ± 0.7 µM	1427 ± 2.6 cal/mol	16.5 ± 0.7 min	–

From patent US20140256638A1, “PEPTOID NEUTRALIZING AGENTS” (The Regents of the University of California, priority 2013, published 2014)
